Laboratory results reported in ChEMBL document CHEMBL4831492, “Design and synthesis of 2-(2-isonicotinoylhydrazineylidene)propanamides as InhA inhibitors with high antitubercular activity” (Eur J Med Chem, 2021).
In brackets after ≈: the same amount, converted by molar mass. Activity calls are given as the source filed them. The calls are words filed in the database; no cut-off is given here.

Key:
[1] = system: Mycobacterium tuberculosis; test: Antimycobacterial activity against drug susceptible Mycobacterium tuberculosis H37Rv assessed as minimal inhibitory concentration required for complete inhibition of mycobacterial growth incubated for 14 days; type: functional; conditions: 336 h, time 14 day
[2] = system: Mycobacterium tuberculosis; test: Antimycobacterial activity against drug susceptible Mycobacterium tuberculosis H37Rv assessed as minimal inhibitory concentration required for complete inhibition of mycobacterial growth incubated for 21 days; type: functional; conditions: 504 h, time 21 day
Mycobacterium avium [3] = test: Antimycobacterial activity against drug resistant Mycobacterium avium 330/88 assessed as minimal inhibitory concentration required for complete inhibition of mycobacterial growth incubated for 14 days; type: functional; conditions: 330/88, 336 h, time 14 day
Mycobacterium avium [4] = test: Antimycobacterial activity against drug resistant Mycobacterium avium 330/88 assessed as minimal inhibitory concentration required for complete inhibition of mycobacterial growth incubated for 21 days; type: functional; conditions: 330/88, 504 h, time 21 day
Mycobacterium kansasii [5] = test: Antimycobacterial activity against drug resistant Mycobacterium kansasii 6509/96 assessed as minimal inhibitory concentration required for complete inhibition of mycobacterial growth incubated for 7 days; type: functional; conditions: 6509/96, 168 h, time 7 day
Mycobacterium kansasii [6] = test: Antimycobacterial activity against drug resistant Mycobacterium kansasii 6509/96 assessed as minimal inhibitory concentration required for complete inhibition of mycobacterial growth incubated for 14 days; type: functional; conditions: 6509/96, 336 h, time 14 day
Mycobacterium kansasii [7] = test: Antimycobacterial activity against drug resistant Mycobacterium kansasii 6509/96 assessed as minimal inhibitory concentration required for complete inhibition of mycobacterial growth incubated for 21 days; type: functional; conditions: 6509/96, 504 h, time 21 day
Mycobacterium avium [8] = test: Antimycobacterial activity against drug resistant Mycobacterium avium 330/88 assessed as inhibition of mycobacterial growth at 250 uM incubated for 14 days; type: functional, organism-based; conditions: time 14.0 day
Mycobacterium avium [9] = test: Antimycobacterial activity against drug resistant Mycobacterium avium 330/88 assessed as inhibition of mycobacterial growth at 250 uM incubated for 21 days; type: functional, organism-based; conditions: time 21.0 day
Mycobacterium kansasii [10] = test: Antimycobacterial activity against drug resistant Mycobacterium kansasii 235/80 assessed as minimal inhibitory concentration required for complete inhibition of mycobacterial growth incubated for 7 days; type: functional; conditions: 235/80, 168 h, time 7 day
Mycobacterium kansasii [11] = test: Antimycobacterial activity against drug resistant Mycobacterium kansasii 235/80 assessed as minimal inhibitory concentration required for complete inhibition of mycobacterial growth incubated for 14 days; type: functional; conditions: 235/80, 336 h, time 14 day
Mycobacterium kansasii [12] = test: Antimycobacterial activity against drug resistant Mycobacterium kansasii 235/80 assessed as minimal inhibitory concentration required for complete inhibition of mycobacterial growth incubated for 21 days; type: functional; conditions: 235/80, 504 h, time 21 day
HepG2 [13] = test: Cytotoxicity against human HepG2 cells assessed as reduction in cell viability incubated overnight followed by compound washout by MTT assay; type: cell-based
HepG2 [14] = test: Cytostatic activity in human HepG2 cells assessed as reduction in cell viability incubated overnight followed by compound washout and further incubated for 72 hrs in medium containing serum by MTT assay; type: functional, cell-based; conditions: HepG2, 72 h
Mycobacterium avium [15] = test: Antimycobacterial activity against drug resistant Mycobacterium avium 330/88 assessed as inhibition of mycobacterial growth at 125 uM incubated for 14 days; type: functional, organism-based; conditions: time 14.0 day
Mycobacterium avium [16] = test: Antimycobacterial activity against drug resistant Mycobacterium avium 330/88 assessed as inhibition of mycobacterial growth at 125 uM incubated for 21 days; type: functional, organism-based; conditions: time 21.0 day
[17] = Selectivity index, ratio of CC50 for cytotoxicity against human HepG2 cells to MIC for antimycobacterial activity against drug susceptible Mycobacterium tuberculosis H37Rv; type: toxicity, cell-based; conditions: read-out: Selectivity Index
[18] = Selectivity index, ratio of CC50 for cytotoxicity against human HepG2 cells to MIC for antimycobacterial activity against drug susceptible Mycobacterium […]; type: toxicity, cell-based; conditions: read-out: Selectivity Index
Mycobacterium avium [19] = test: Antimycobacterial activity against drug resistant Mycobacterium avium 330/88 assessed as inhibition of mycobacterial growth at 500 uM incubated for 14 days; type: functional, organism-based; conditions: time 14.0 day
Mycobacterium avium [20] = test: Antimycobacterial activity against drug resistant Mycobacterium avium 330/88 assessed as inhibition of mycobacterial growth at 500 uM incubated for 21 days; type: functional, organism-based; conditions: time 21.0 day

## C/C(=N\NC(=O)c1ccncc1)C(=O)Nc1cc(C(F)(F)F)cc(C(F)(F)F)c1
[1]
  MIC: 1 µM (≈ 0.418 µg/mL)
[2]
  MIC: 1 µM (≈ 0.418 µg/mL)
Mycobacterium avium [3]
  MIC: > 1000 µM
Mycobacterium avium [4]
  MIC: > 1000 µM
Mycobacterium kansasii [5]
  MIC: 32 µM (≈ 13.4 µg/mL)
Mycobacterium kansasii [6]
  MIC: 32 µM (≈ 13.4 µg/mL)
Mycobacterium kansasii [7]
  MIC: 32 µM (≈ 13.4 µg/mL)

## C/C(=N\NC(=O)c1ccncc1)C(=O)Nc1ccc(SC(F)(F)F)cc1
[1]
  MIC: 0.5 µM (≈ 0.191 µg/mL)
[2]
  MIC: 0.5 µM (≈ 0.191 µg/mL)
Mycobacterium kansasii [5]
  MIC: 4 µM (≈ 1.53 µg/mL)
Mycobacterium kansasii [6]
  MIC: 4 µM (≈ 1.53 µg/mL)
Mycobacterium kansasii [7]
  MIC: 4 µM (≈ 1.53 µg/mL)
Mycobacterium avium [8]
  Activity: inactive
Mycobacterium avium [9]
  Activity: inactive

## C/C(=N\NC(=O)c1ccncc1)C(=O)Nc1ccc(C(F)(F)F)cc1
[1]
  MIC: ≤ 0.03 µM
[2]
  MIC: ≤ 0.03 µM
Mycobacterium kansasii [5]
  MIC: 2 µM (≈ 0.701 µg/mL)
Mycobacterium kansasii [6]
  MIC: 4 µM (≈ 1.4 µg/mL)
Mycobacterium kansasii [7]
  MIC: 4 µM (≈ 1.4 µg/mL)
Mycobacterium kansasii [10]
  MIC: 8 µM (≈ 2.8 µg/mL)
Mycobacterium kansasii [11]
  MIC: 16 µM (≈ 5.6 µg/mL)
Mycobacterium kansasii [12]
  MIC: 32 µM (≈ 11.2 µg/mL)
HepG2 [13]
  IC50: > 50 µM
HepG2 [14]
  IC50: > 50 µM
Mycobacterium avium [15]
  Activity: inactive
Mycobacterium avium [16]
  Activity: inactive
[17]
  selectivity ratio: > 1670
[18]
  selectivity ratio: > 12.5

## C/C(=N\NC(=O)c1ccncc1)C(=O)Nc1cccc(OC(F)(F)F)c1
[1]
  MIC: 0.125 µM (≈ 0.0458 µg/mL)
[2]
  MIC: 0.5 µM (≈ 0.183 µg/mL)
Mycobacterium kansasii [5]
  MIC: 4 µM (≈ 1.47 µg/mL)
Mycobacterium kansasii [6]
  MIC: 8 µM (≈ 2.93 µg/mL)
Mycobacterium kansasii [7]
  MIC: 8 µM (≈ 2.93 µg/mL)
Mycobacterium avium [19]
  Activity: inactive
Mycobacterium avium [20]
  Activity: inactive

## C/C(=N\NC(=O)c1ccncc1)C(=O)Nc1ccc(F)c(F)c1
[1]
  MIC: 0.25 µM (≈ 0.0796 µg/mL)
[2]
  MIC: 0.5 µM (≈ 0.159 µg/mL)
Mycobacterium kansasii [5]
  MIC: 2 µM (≈ 0.637 µg/mL)
Mycobacterium kansasii [6]
  MIC: 4 µM (≈ 1.27 µg/mL)
Mycobacterium kansasii [7]
  MIC: 8 µM (≈ 2.55 µg/mL)
Mycobacterium avium [19]
  Activity: inactive
Mycobacterium avium [20]
  Activity: inactive

## C/C(=N\NC(=O)c1ccncc1)C(=O)Nc1cccc(F)c1
[1]
  MIC: 0.25 µM (≈ 0.0751 µg/mL)
[2]
  MIC: 0.25 µM (≈ 0.0751 µg/mL)
Mycobacterium kansasii [5]
  MIC: 2 µM (≈ 0.601 µg/mL)
Mycobacterium kansasii [6]
  MIC: 4 µM (≈ 1.2 µg/mL)
Mycobacterium kansasii [7]
  MIC: 8 µM (≈ 2.4 µg/mL)
Mycobacterium avium [19]
  Activity: inactive
Mycobacterium avium [20]
  Activity: inactive

## NNC(=O)c1ccncc1 [ISONIAZID]
[1]
  MIC: 0.5 µM (≈ 0.0686 µg/mL)
[2]
  MIC: 1 µM (≈ 0.137 µg/mL)
Mycobacterium avium [3]
  MIC: > 250 µM
Mycobacterium avium [4]
  MIC: > 250 µM
Mycobacterium kansasii [5]
  MIC: 4 µM (≈ 0.549 µg/mL)
Mycobacterium kansasii [6]
  MIC: 8 µM (≈ 1.1 µg/mL)
Mycobacterium kansasii [7]
  MIC: 8 µM (≈ 1.1 µg/mL)
Mycobacterium kansasii [10]
  MIC: > 250 µM
Mycobacterium kansasii [11]
  MIC: > 250 µM
Mycobacterium kansasii [12]
  MIC: > 250 µM

## C/C(=N\NC(=O)c1ccncc1)C(=O)Nc1ccc(Cl)cc1
[1]
  MIC: 0.25 µM (≈ 0.0792 µg/mL)
[2]
  MIC: 0.25 µM (≈ 0.0792 µg/mL)
Mycobacterium avium [3]
  MIC: 250 µM (≈ 79.2 µg/mL)
Mycobacterium avium [4]
  MIC: 250 µM (≈ 79.2 µg/mL)
Mycobacterium kansasii [5]
  MIC: 4 µM (≈ 1.27 µg/mL)
Mycobacterium kansasii [6]
  MIC: 8 µM (≈ 2.53 µg/mL)
Mycobacterium kansasii [7]
  MIC: 16 µM (≈ 5.07 µg/mL)
Mycobacterium kansasii [10]
  MIC: 16 µM (≈ 5.07 µg/mL)
Mycobacterium kansasii [11]
  MIC: 16 µM (≈ 5.07 µg/mL)
Mycobacterium kansasii [12]
  MIC: 16 µM (≈ 5.07 µg/mL)
HepG2 [13]
  IC50: > 50 µM
HepG2 [14]
  IC50: > 50 µM
[17]
  selectivity ratio: > 200
[18]
  selectivity ratio: > 3.12

## C/C(=N\NC(=O)c1ccncc1)C(=O)Nc1cccc(I)c1
[1]
  MIC: 0.125 µM (≈ 0.051 µg/mL)
[2]
  MIC: 0.5 µM (≈ 0.204 µg/mL)
Mycobacterium avium [3]
  MIC: > 1000 µM
Mycobacterium avium [4]
  MIC: > 1000 µM
Mycobacterium kansasii [5]
  MIC: 4 µM (≈ 1.63 µg/mL)
Mycobacterium kansasii [6]
  MIC: 8 µM (≈ 3.27 µg/mL)
Mycobacterium kansasii [7]
  MIC: 8 µM (≈ 3.27 µg/mL)

## C/C(=N\NC(=O)c1ccncc1)C(=O)Nc1ccc(OC(F)F)cc1
[1]
  MIC: 0.25 µM (≈ 0.0871 µg/mL)
[2]
  MIC: 0.5 µM (≈ 0.174 µg/mL)
Mycobacterium avium [3]
  MIC: > 1000 µM
Mycobacterium avium [4]
  MIC: > 1000 µM
Mycobacterium kansasii [5]
  MIC: 2 µM (≈ 0.697 µg/mL)
Mycobacterium kansasii [6]
  MIC: 4 µM (≈ 1.39 µg/mL)
Mycobacterium kansasii [7]
  MIC: 8 µM (≈ 2.79 µg/mL)

## C/C(=N\NC(=O)c1ccncc1)C(=O)Nc1cc(Cl)c(Cl)c(Cl)c1
[1]
  MIC: 0.5 µM (≈ 0.193 µg/mL)
[2]
  MIC: 1 µM (≈ 0.386 µg/mL)
Mycobacterium avium [3]
  MIC: > 250 µM
Mycobacterium avium [4]
  MIC: > 250 µM
Mycobacterium kansasii [5]
  MIC: 16 µM (≈ 6.17 µg/mL)
Mycobacterium kansasii [6]
  MIC: 16 µM (≈ 6.17 µg/mL)
Mycobacterium kansasii [7]
  MIC: 32 µM (≈ 12.3 µg/mL)
Mycobacterium kansasii [10]
  MIC: 62.5 µM (≈ 24.1 µg/mL)
Mycobacterium kansasii [11]
  MIC: 125 µM (≈ 48.2 µg/mL)
Mycobacterium kansasii [12]
  MIC: 250 µM (≈ 96.4 µg/mL)
